Data taken from US10167279B2 (NOVARTIS AG, priority 2014, dated 2019).

Columns and labels:
b-Raf (V600E) = b-Raf (V600E) (Homo sapiens (Human), UniProt P15056, V600E); test: In vitro Raf activity determination (Alpha Screen, phospho-MEK), b-Raf (V600E); format: biochemical; conditions: ATP 10 μM, 60 min pre-incubation, 3 hours reaction
C-Raf FL = C-Raf FL (Homo sapiens (Human), UniProt P04049, Y340E/Y341E); test: In vitro Raf activity determination (Alpha Screen, phospho-MEK), C-Raf FL (full length, Y340E/Y341E); format: biochemical; conditions: ATP 1 μM; 60 min pre-incubation; 1 hour reaction; column head does not say FL or TR
Chain of C-Raf FL (P04049 whole entry Y340E/Y341E): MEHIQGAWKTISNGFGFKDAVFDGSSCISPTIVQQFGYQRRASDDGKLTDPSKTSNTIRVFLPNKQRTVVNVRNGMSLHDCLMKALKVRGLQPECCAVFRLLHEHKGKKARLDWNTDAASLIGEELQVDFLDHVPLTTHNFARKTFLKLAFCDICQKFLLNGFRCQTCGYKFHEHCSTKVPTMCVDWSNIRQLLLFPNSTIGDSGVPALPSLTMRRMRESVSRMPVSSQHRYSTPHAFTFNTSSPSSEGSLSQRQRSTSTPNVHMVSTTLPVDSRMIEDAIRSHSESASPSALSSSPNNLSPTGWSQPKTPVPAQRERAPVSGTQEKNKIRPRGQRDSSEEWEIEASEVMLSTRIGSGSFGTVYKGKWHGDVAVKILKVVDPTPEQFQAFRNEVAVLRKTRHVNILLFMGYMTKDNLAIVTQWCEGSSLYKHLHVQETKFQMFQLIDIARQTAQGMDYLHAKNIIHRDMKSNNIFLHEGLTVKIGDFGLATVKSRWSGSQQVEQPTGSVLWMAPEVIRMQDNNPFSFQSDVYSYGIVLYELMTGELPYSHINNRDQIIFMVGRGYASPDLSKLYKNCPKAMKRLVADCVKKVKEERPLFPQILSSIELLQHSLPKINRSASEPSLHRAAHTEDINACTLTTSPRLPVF
Chain of C-Raf FL (P63104 whole entry partner): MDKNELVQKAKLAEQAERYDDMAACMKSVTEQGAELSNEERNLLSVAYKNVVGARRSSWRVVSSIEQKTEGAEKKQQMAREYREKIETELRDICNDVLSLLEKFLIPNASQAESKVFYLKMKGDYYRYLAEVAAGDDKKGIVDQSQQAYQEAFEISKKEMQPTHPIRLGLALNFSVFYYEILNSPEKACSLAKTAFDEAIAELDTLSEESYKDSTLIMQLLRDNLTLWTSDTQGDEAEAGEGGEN
How it was run: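 Sf9-expressed C-Raf incubated with biotinylated kinase-dead MEK1 (K97R) in 50 mM Tris pH 7.5, 15 mM MgCl2, 0.01% BSA, 1 mM DTT with compound, 60 min at room temperature. Phospho-MEK detected by anti-p-MEK AlphaScreen luminescence; IC50 by non-linear regression.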

Chain of b-Raf (V600E) (P15056 whole entry V600E): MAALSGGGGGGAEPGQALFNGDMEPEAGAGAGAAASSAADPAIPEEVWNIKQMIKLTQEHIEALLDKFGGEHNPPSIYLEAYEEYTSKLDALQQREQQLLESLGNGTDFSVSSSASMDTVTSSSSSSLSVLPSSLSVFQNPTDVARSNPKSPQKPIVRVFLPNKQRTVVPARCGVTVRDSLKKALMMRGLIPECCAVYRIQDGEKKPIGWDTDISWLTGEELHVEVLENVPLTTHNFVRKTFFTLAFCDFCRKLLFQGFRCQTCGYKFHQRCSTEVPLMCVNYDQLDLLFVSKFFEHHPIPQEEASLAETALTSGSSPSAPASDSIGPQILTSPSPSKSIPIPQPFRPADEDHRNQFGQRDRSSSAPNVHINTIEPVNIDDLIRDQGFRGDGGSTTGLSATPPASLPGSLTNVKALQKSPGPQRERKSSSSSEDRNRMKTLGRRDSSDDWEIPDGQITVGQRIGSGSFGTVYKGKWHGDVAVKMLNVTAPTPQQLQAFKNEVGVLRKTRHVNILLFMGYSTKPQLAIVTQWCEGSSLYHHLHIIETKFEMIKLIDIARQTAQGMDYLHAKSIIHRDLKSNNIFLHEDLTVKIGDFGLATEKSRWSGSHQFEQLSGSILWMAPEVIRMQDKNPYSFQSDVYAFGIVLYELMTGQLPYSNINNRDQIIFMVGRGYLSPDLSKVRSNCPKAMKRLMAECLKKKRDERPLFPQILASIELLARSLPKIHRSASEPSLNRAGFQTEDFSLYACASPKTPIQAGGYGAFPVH

Compound | IC50 (b-Raf (V600E)) [nM] | IC50 (C-Raf FL) [nM]
Cc1ccc(NC(=O)c2ccnc(C(C)(C)C#N)c2)cc1-c1cccc(C2(C)COC2)c1 [Example 27, 2-(2-cyanopropan-2-yl)-N-(6-methyl-3′-(3-methyloxetan-3-yl)-[1,1′-biphenyl]-3-yl)isonicotinamide] | 1210 | 263
Cc1ccc(C(=O)Nc2cccc(C(F)(F)F)c2)cc1-c1cccc(C2(C)COC2)c1 [Example 26, 6-methyl-3′-(3-methyloxetan-3-yl)-N-(3-(trifluoromethyl)phenyl)-[1,1′-biphenyl]-3-carboxamide] | 2.3 | 0.372
Cc1ccc(NC(=O)c2ccnc(C(C)(C)O)c2)cc1-c1cc(C2(C)COC2)c2nccn2n1 [Example 62, 2-(2-hydroxypropan-2-yl)-N-(4-methyl-3-(8-(3-methyloxetan-3-yl)imidazo[1,2-b]pyridazin-6-yl)phenyl)isonicotinamide] | 3.77 | 0.707
Cc1ccc(NC(=O)c2ccnc(C(F)(F)F)c2)cc1-c1cnc(OC2CCOCC2)c(C2(O)COC2)c1 [Example 35, N-(3-(5-(3-hydroxyoxetan-3-yl)-6-((tetrahydro-2H-pyran-4-yl)oxy)pyridin-3-yl)-4-methylphenyl)-2-(trifluoromethyl)isonicotin-amide] | 0.966 | 0.297
CCOc1ncc(-c2cc(NC(=O)c3ccnc(C(F)(F)F)c3)cnc2C)cc1C1(C)COC1 [Example 63, N-(6′-ethoxy-2-methyl-5′-(3-methyloxetan-3-yl)-[3,3′-bipyridin]-5-yl)-2-(trifluoromethyl)isonicotin-amide] | 0.613 | 0.183
Cc1ccc(NC(=O)c2cccc(C(F)(F)F)c2)cc1-c1cccc(C2(C)COC2)c1 [Example 25, N-(6-methyl-3′-(3-methyloxetan-3-yl)-[1,1′-biphenyl]-3-yl)-3-(trifluoromethyl)benz-amide] | 0.87 | 0.154
COc1cc(-c2cc(NC(=O)c3cccc(C(F)(F)F)c3)ccc2C)cc(C2COC2)c1 [Example 21] | 2.73 | 0.373
Cc1ncc(NC(=O)c2ccnc(C(C)(C)C#N)c2)cc1-c1cnc(OC2CCOCC2)c(C2(O)COC2)c1 [Example 34, 2-(2-cyanopropan-2-yl)-N-(5′-(3-hydroxyoxetan-3-yl)-2-methyl-6′-((tetrahydro-2H-pyran-4-yl)oxy)-[3,3′-bipyridin]-5-yl)isonicotinamide] | 20.5 | 7.63
COc1ncc(-c2cc(NC(=O)c3cc(C(F)(F)F)ccn3)ccc2C)cc1C1(O)COC1 [Example 84, N-(3-(5-(3-hydroxyoxetan-3-yl)-6-methoxypyridin-3-yl)-4-methylphenyl)-4-(trifluoromethyl)picolin-amide] | 2.21 | 0.351
Cc1ncc(NC(=O)c2cccc(C(F)(F)F)c2)cc1-c1cnc(OCCO)c(C2(F)COC2)c1 [Example 37, N-(5′-(3-fluorooxetan-3-yl)-6′-(2-hydroxyethoxy)-2-methyl-[3,3′-bipyridin]-5-yl)-3-(trifluoromethyl)benzamide] | 1.85 | 0.354
CCOc1ncc(-c2cc(NC(=O)c3ccnc(C(C)(C)C#N)c3)ccc2C)cc1C1(CF)COC1 [Example 31, 2-(2-cyanopropan-2-yl)-N-(3-(6-ethoxy-5-(3-(fluoromethyl)oxetan-3-yl)pyridin-3-yl)-4-methylphenyl)isonicotin-amide] | 0.446 | 0.157

Next, values leading:

IC50 (b-Raf (V600E)) [nM] | IC50 (C-Raf FL) [nM] | Compound
0.58 | 0.146 | COc1ncc(-c2cc(NC(=O)c3ccnc(C(C)(C)C#N)c3)ccc2C)cc1C1(CF)COC1 [Example 106, 2-(2-cyanopropan-2-yl)-N-(3-(5-(3-(fluoromethyl)oxetan-3-yl)-6-methoxypyridin-3-yl)-4-methylphenyl)isonicotin-amide]
3.89 | 0.562 | Cc1ncc(NC(=O)c2cccc(C(F)(F)F)c2)cc1-c1cnc(OC2CCOCC2)c(C2(O)COC2)c1 [Example 118, N-(5′-(3-hydroxyoxetan-3-yl)-2-methyl-6′-((tetrahydro-2H-pyran-4-yl)oxy)-[3,3′-bipyridin]-5-yl)-3-(trifluoromethyl)benzamide]
6.22 | 1.25 | COc1ncc(-c2cc(NC(=O)c3ccnc(C(C)(F)F)c3)cnc2C)cc1C1(C#N)COC1 [Example 116, N-(5′-(3-cyanooxetan-3-yl)-6′-methoxy-2-methyl-[3,3′-bipyridin]-5-yl)-2-(1,1-difluoroethyl)isonicotin-amide]
0.808 | 0.176 | Cc1ccc(NC(=O)c2cccc(C(F)(F)F)c2)cc1-c1cnc(OC2CCOCC2)c(C2(O)COC2)c1 [Example 119, N-(3-(5-(3-hydroxyoxetan-3-yl)-6-((tetrahydro-2H-pyran-4-yl)oxy)pyridin-3-yl)-4-methylphenyl)-3-(trifluoromethyl)benzamide]
8.03 | 1.01 | COc1ncc(-c2cc(NC(=O)c3cc(C(C)(C)F)ccn3)cnc2C)cc1C1(F)COC1 [Example 93, N-(5′-(3-fluorooxetan-3-yl)-6′-methoxy-2-methyl-[3,3′-bipyridin]-5-yl)-4-(2-fluoropropan-2-yl)picolinamide]
3.92 | 0.514 | COc1ncc(-c2cc(NC(=O)c3cc(C(C)(C)F)ccn3)ccc2C)cc1C1(O)COC1 [Example 95, 4-(2-fluoropropan-2-yl)-N-(3-(5-(3-hydroxyoxetan-3-yl)-6-methoxypyridin-3-yl)-4-methylphenyl)picolinamide]
2.15 | 0.633 | CCOc1nnc(-c2cc(NC(=O)c3ccnc(C(C)(C)F)c3)cnc2C)cc1C1(C)COC1 [Example 128, N-(5-(6-ethoxy-5-(3-methyloxetan-3-yl)pyridazin-3-yl)-6-methylpyridin-3-yl)-2-(2-fluoropropan-2-yl)isonicotinamide]
1.8 | 0.424 | COc1ncc(-c2cc(NC(=O)c3cc(C(C)(C)N)cc(C(F)(F)F)c3)ccc2C)cc1C1(CF)COC1 [Example 108, 3-(2-aminopropan-2-yl)-N-(3-(5-(3-(fluoromethyl)oxetan-3-yl)-6-methoxypyridin-3-yl)-4-methylphenyl)-5-(trifluoromethyl)benzamide]
10.4 | 1.41 | COc1ncc(-c2cc(NC(=O)c3cccc(C(F)(F)F)c3)cnc2C)cc1C1(O)COC1 [Example 97, N-(5′-(3-hydroxyoxetan-3-yl)-6′-methoxy-2-methyl-[3,3′-bipyridin]-5-yl)-3-(trifluoromethyl)benzamide]
1.67 | 0.364 | Cc1ccc(NC(=O)c2ccnc(C(C)(F)F)c2)cc1-c1cnc(-c2cnn(C)c2)c(C2(O)COC2)c1 [Example 144, 2-(1,1-difluoroethyl)-N-(3-(5-(3-hydroxyoxetan-3-yl)-6-(1-methyl-1H-pyrazol-4-yl)pyridin-3-yl)-4-methylphenyl)isonicotin-amide]
2.67 | 0.415 | COc1ncc(-c2cc(NC(=O)c3ccnc(C(C)(C)F)c3)ccc2C)cc1C1(O)COC1 [Example 99, 2-(2-fluoropropan-2-yl)-N-(3-(5-(3-hydroxyoxetan-3-yl)-6-methoxypyridin-3-yl)-4-methylphenyl)isonicotin-amide]
2.75 | 0.716 | COc1ncc(-c2cc(NC(=O)c3ccnc(C(C)(C)F)c3)ccc2C)cc1C1(C#N)COC1 [Example 111, N-(3-(5-(3-cyanooxetan-3-yl)-6-methoxypyridin-3-yl)-4-methylphenyl)-2-(2-fluoropropan-2-yl)isonicotinamide]
7.74 | 1.97 | Cc1ncc(NC(=O)c2cc(C(C)(C)C#N)ccn2)cc1-c1cccc(C2(C)COC2)c1 [Example 126, 4-(2-cyanopropan-2-yl)-N-(6-methyl-5-(3-(3-methyloxetan-3-yl)phenyl)pyridin-3-yl)picolinamide]
7.19 | 1.43 | CCC(F)(F)c1cc(C(=O)Nc2cnc(C)c(-c3cnc(OC)c(C4(C#N)COC4)c3)c2)ccn1 [Example 117, N-(5′-(3-cyanooxetan-3-yl)-6′-methoxy-2-methyl-[3,3′-bipyridin]-5-yl)-2-(1,1-difluoropropyl)isonicotin-amide]
